From publication PMC12844124, “Synthesis and Study of Substituted Chalcones Combined with Fluoroazobenzenes—New Photoswitches for Application in Biological Systems” (Molecules, 2026)

Experiments:
[1] = UV–VIS spectra of E/Z isomers in DMSO; type: physicochemical; details: for Δ λmax n→π*: between E and Z isomers
Experimental: For this purpose, the UV–VIS spectra were measured for all synthesized hybrids (17a–17l) at concentrations from 20 to 500 µM in dimethyl sulfoxide (DMSO) in light at λ 505 nm and for (17a–17c), (17e–17g), and (17i–17l) at λ 525 nm, respectively, as detailed in Table 1 (see Section S4.4 in Supplementary Materials).

Solubility in DMSO = type: physicochemical
[2] = Photostationary state (PSS) composition by 19F NMR; type: physicochemical; details: irradiation 525 nm, DMSO-d6
Text: Azo compounds have been applied in various fields due to their ability to undergo structural changes, with one of the most interesting applications being the direct conversion of light into mechanical energy. However, azobenzenes generally face two main limitations that hinder their practical use in biological and materials sciences. The first is the need for UV light to induce the E→Z isomerization through π→π* excitation, which can potentially interfere with and damage the surrounding environment. The second limitation is the typically incomplete reverse Z→E photoisomerization, which is induced by irradiation in the visible region. In this region, the n→π* bands of the E and Z isomers largely overlap, making it difficult to achieve E-rich photostationary states (PSSs) after back-switching. These limitations can be overcome by modifying azobenzene in such a way that the n→π* bands of the E and Z isomers are sufficiently separated. If the separation is large enough, the two n→π* bands can be distinct, allowing visible light to selectively isomerize both isomers with high to complete E/Z photoconversions. We are looking for switches that operate within the visible light range of 380–750 nm, which is harmless. Fluorine-substituted azobenzenes are well-suited for designing visible-light-responsive systems, offering stable and bidirectional photoconversions along with tissue-compatible properties. We confirmed that the compounds we synthesized successfully dock with tubulin. In the next step, we tested whether the added azo compound would meet our expectations as a visible light switch. For this purpose, we used NMR spectroscopy. We measured ^19F spectra of (17a–17c, 17e–17g, and 17i–17l) at nine wavelengths from 390 nm to 610 nm to check which wavelengths produce the most Z isomer after exposure (see Section S4.2 in Supplementary Materials). We selected DMSO as the solvent due to its ability to dissolve both polar and nonpolar molecules, which is essential for the analytical methods employed in this study. Its intermediate polarity also makes it a good surrogate for both organic and aqueous solvents. Additionally, DMSO is commonly used for preparing stock solutions, which are then illuminated and diluted into aqueous systems for assessing biological activity. […]
Figure 2 (a) Photostationary state (PSS) compositions for chalcones (17a–17c, 17e–17g, and 17i–17l) determined by ^19F NMR analysis (c ≈ 100 mM in DMSO-d6), presented in a bar chart; (b) representative multiple photoswitching rounds of 60 µM of (17j) in DMSO by pulsed green (525 nm) and blue (430 nm) light illumination. The photochemical stability of the drug is analyzed via repeated cycles of irradiation (software: Microsoft Excel).

[3] = Changes over time of Z to E transition by 19F NMR; type: physicochemical; details: light 525 nm, 100 mM in DMSO
Text: We can observe that for electromagnetic radiation in the range of wavelengths 390 nm to 610 nm, transitions from E to Z of about 0–76% are obtained. The best results for all compounds are in visible wavelengths 505 nm or 525 nm (30.59–75.44%). From analyzing Figure 2 we can draw the following conclusions: all synthesized compounds undergo switching under visible light (this is important because UV radiation can damage the DNA of cells, inhibiting replication and, as a result, preventing cell division). For the 2,6-difluoro substituents (17i), (17j), (17k), and (17l) with values of 74.84%, 73.2%, 74.39%, and 75.44%, respectively, the largest share of the Z configuration is at (525 nm) and, for the rest of (17a), (17b), (17c), (17e), (17f), and (17g), it is in range of 30.57–47.13% at 505 nm. […] Multiple cycles of photoreversible switching under alternating green and blue light irradiation, with no significant photobleaching or degradation, confirmed the repeatable and robust photochromic conversion of the synthesized azobenzenes (Figure 2b). Then we measured changes over time (transitions from Z to E, upon irradiation with 505 nm for (17a–17c) and (17e–17g), and 525 nm for (17i–17l) compounds (Figure 3, and see Section S4.3 in Supplementary Materials).

PC-3 cells [4] = assay: MTS cell proliferation assay, PC-3; type: cell-based, human
Experimental: Human BJ fibroblasts (American Type Cell Culture Collection, Manassas, VA, USA, CRL-2522) and human prostate cancer cell line PC-3 (American Type Cell Culture Collection, Manassas, VA, USA, CRL-1435), derived from bone metastases, were routinely grown in […]) Medium (ThermoFisher, Waltham, MA, USA, 21127-022) and supplemented with heat-inactivated 10% Fetal Bovine Serum (Biowest, France, […]) and 1% antibiotic solution (Biowest, Nuaillé, France, L0022), in a humidified 5% CO2 atmosphere at 37 °C. Cells were used between 3 and 20 passages. The 96-well plates were prepared by seeding 5 × 10^3 or 2.5 × 10^3 cells per well, for 24 and 48 h treatments, respectively, with at least five technical and two biological repeats. […] The cells were treated with either the Z conformer of 17j, with continuous illumination with 525 nm light, or the E conformer. The Z conformer was prepared by illuminating its DMSO solution with 525 nm light overnight. The cell proliferation was analyzed with CellTiter Aqueous One Solution Cell Proliferation MTS (3-(4,5-dimethylthiazol-2-yl)-5-(3-carboxymethoxyphenyl)-2-(4-sulfophenyl)-2H-tetrazolium) Assay (Promega, Madison, WI, USA, G5430) after 24 or 48 h of treatment. The absorbance was measured at 490 and 670 nm with FLUOStar Omega plate reader (BMG LABTECH GmbH, Ortenberg, Germany). The statistical analysis was performed within R 4.5.1 project. […] The log-logistic four parametric model (4PL), with the lower limit boundary set to 0 and group fitting, was used, as available in the drc package, to fit cell proliferation data. […] The assessment metrics for model goodness of fit were performed with functions available in the drc package and with custom ones. When appropriate, the delta method was applied to obtain error of central tendency. To assess the goodness of fit for each of the biological replicates, deviance R^2 (DR^2) was calculated and assessed. […] The DR^2 was calculated according to the following Equation: 1 - (Dres/Dnull), where Dres-residual deviance and Dnull-null deviance (deviance of the model with mean as a predicted value). The null hypothesis was assessed with the two-way ANOVA with Tukey's post hoc test for multiple comparisons or with the two-way t-test when only two groups were compared. The differences in the cell cycle percentages were assessed with the two-way ANOVA with Tukey's post hoc test.

PC-3 cells [5] = assay: Cell cycle analysis by flow cytometry, PC-3; type: cell-based, human; details: 24 h
Experimental: The BJ or PC-3 cells were treated as described previously, with the exception that 0.15 × 10^6 cells per well were seeded in 6-well plates. After 24 h of treatment, cells were harvested by trypsinization (Biowest, Nuaillé, France, L0931), washed twice, resuspended in PBS, and added to cold 70% ethanol for overnight fixation at −20 °C. Subsequently, cells were centrifuged and resuspended in PBS containing 5 µg/mL of propidium iodide in PBS (Sigma-Aldrich, St. Louis, MO, USA, 4170), 0.1% Triton X-100, and 10 µg/mL of DNAse-free RNAse (A&A Biotechnology, Gdansk, Poland, 1006-10) in the dark for 4 h at 37 °C. FACS analysis was performed using a FACSCanto II flow cytometer and FACSDiva, version 9.0 software (BD Biosciences, San Jose, CA, USA). Flow rate was set to about 1000 events/cells per second. Signals from at least 10,000 events per sample were captured. The percentages of PC-3 cells in cell cycle phases (G0/G1, S, and G2/M) were determined using ModFit LT 4.1.7 (Verity Software House, Topsham, ME, USA).

| εmax (n→π*) ([1]; E isomer) [dm^3·mol^−1·cm^−1] | λmax n→π* (E) ([1]; E isomer) [nm] | εmax (n→π*) ([1]; Z isomer) [dm^3·mol^−1·cm^−1] | λmax n→π* (Z) ([1]; Z isomer) [nm] | Δ λmax n→π* [1] [nm] | solubility in DMSO (Solubility in DMSO) | share of the Z configuration (PSS) [2] [%] | Z isomer, changes over time ([3]; 0 h) [%] | Z isomer, changes over time ([3]; 1 h) [%] | Z isomer, changes over time ([3]; 2 h) [%] | Z isomer, changes over time ([3]; 3 h) [%] | Z isomer, changes over time ([3]; 4 h) [%] | Z isomer, changes over time ([3]; 5 h) [%] | Z isomer, changes over time ([3]; 6 h) [%] | Z isomer, changes over time ([3]; 7 h) [%] | Z isomer, changes over time ([3]; 8 h) [%] | Δ (Z to E change 0 h to 8 h) [3] [%] | SMILES | other results |
| --- | --- | --- | --- | --- | --- | --- | --- | --- | --- | --- | --- | --- | --- | --- | --- | --- | --- | --- |
| 660 | 440.8 | 850 | 434.1 | 6.7 | poorly soluble |  |  |  |  |  |  |  |  |  |  |  | O=C(/C=C/c1ccc(Br)cc1)c1cccc(/N=N/c2ccc(F)cc2)c1 [Compound 17d] |  |
| 796 | 441.2 | 1016 | 426.9 | 14.3 | poorly soluble |  |  |  |  |  |  |  |  |  |  |  | O=C(/C=C/c1ccc(Br)cc1)c1cccc(/N=N/c2ccc(F)cc2F)c1 [Compound 17h] |  |
|  |  |  |  |  |  | 74.84 | 74.84 | 73.32 | 72.17 | 70.9 | 69.59 | 68.98 | 68 | 67.46 | 66.19 | 8.65 | COc1ccc(/C=C/C(=O)c2cccc(/N=N/c3c(F)cccc3F)c2)cc1OC [Compound 17i] |  |
|  |  |  |  |  |  | 74.39 | 74.39 | 74.02 | 72.48 | 72.26 | 70.95 | 70.43 | 69.33 | 67.93 | 67.18 | 7.21 | COc1cc(/C=C/C(=O)c2cccc(/N=N/c3c(F)cccc3F)c2)cc(OC)c1OC [Compound 17k] |  |
| 902 | 448.6 | 1074 | 417.9 | 30.7 |  | 75.44 | 75.44 | 74.04 | 72.7 | 71.56 | 70.77 | 69.92 | 68.63 | 67.93 | 67.78 | 7.66 | O=C(/C=C/c1ccc(Br)cc1)c1cccc(/N=N/c2c(F)cccc2F)c1 [Compound 17l] |  |
|  |  |  |  |  |  |  |  |  |  |  |  |  |  |  |  |  | COc1cc2c(c(OC)c1OC)-c1ccc(OC)c(=O)cc1[C@@H](NC(C)=O)CC2 [colchicine, reference compound] | normalized asymptote (PC-3 cells [4]; 24 h treatment): 63.8 ± 6.2%; normalized asymptote (PC-3 cells [4]; 48 h treatment): 51.3 ± 5.7%; percentage of cells in the G2/M phase (PC-3 cells [5]; 20 nM): 15.7%; percentage of cells in the G2/M phase (PC-3 cells [5]; 60 nM): 54.2% |
